Assay results from patent US10350188B2, “Use of Neu1 sialidase inhibitors in the treatment of cancer” (priority 2011, dated 2019).

What was measured:
[1] = tested on: PANC-1 human pancreatic cancer cells implanted in RAG1/Cγ double mutant NOD xenograft mice; experiment: PANC-1 pancreatic cancer xenograft in RAG1/Cγ double mutant NOD mice; conditions: for Liver metastases % Inhibition: vs untreated day 79
Excerpt: An immunodeficient mouse model with a double mutation in the combining recombinase activating gene-1 or -2 (RAG1 or RAG2) and common cytokine receptor γ chain (cγ) were used as xenograft mice. […] Mice deficient in both RAG2 and cγ (RAG2−/−/cγ−/−) were generated by inter-crossing and were maintained in SPF isolators in the Animal Care Facility, Queen's University, Kingston, Ontario K7L3N6, Canada. A colony was established in the animal facility. Mice deficient in both RAG1 and cγ (RAG1^−/−×cγ^−/−) on a non-obese diabetic (NOD) genetic background were obtained from the Jackson Laboratory (Bar Harbor, Me.) and a colony was established in the animal facility. All mice were kept under sterile conditions in micro-isolators or air-filtered cages, and were provided with autoclaved food and water. […] They were used between 6 and 8 weeks of age.
Puromycin-resistance eGFP transduced MiaPaCa-2 or PANC-1 cell clones were grown in 75 cm^2 cell culture flask at 80% confluence. The cells were resuspended into solution using TrypLE Express (Gibco) and washed with sterile saline. The cell suspension was centrifuged for 3 min at 900 rpm, and the cell pellet resuspended in sterile saline at a concentration of 5-10×10^6 cells/mL for 1-2×10^6 cells implantation into the right back flank of the mouse. Tumour measurements were taken twice a week. Tumour volumes were determined by (width square/2)×length.
The RAG1/Cγ double mutant xenograft mouse model was implanted with 2×10^6 PANC-1 cells in 0.2 mL in the right back flank.

A 2780cis cells = experiment: Cell viability of A 2780cis ovarian cancer cells in culture (MTT or WST-1, 72 hrs); type: cell-based, human; conditions: A 2780cis; for Chemo-drug LD50: WST-1, 72 hrs
Method: (§1) A-2780 cells are human ovarian cancer cell line which was established from tumor tissue from an untreated patient with adenocarcinoma. Cells grow as a monolayer and in suspension in spinner cultures.
(§2) All cells were grown at 37° C. in 5% CO2 in culture media containing Dulbecco's Modified Eagle Medium (DMEM) (Gibco, Rockville, Md.) supplemented with 10% fetal calf serum (FCS) (HyClone, Logan, Utah, USA).
(§3) MTT is a colorimetric assay for measuring the activity of enzymes that reduce MTT or closely related dyes (XTT, MTS, WSTs) to formazan dye, giving a purple color. A main application allows the assessment of the viability (cell counting) and the proliferation of cells (cell culture assays). It can also be used to determine cytotoxicity of potential medicinal agents and toxic materials, since those agents would stimulate or inhibit cell viability and growth. MTT (3-(4,5-Dimethylthiazol-2-yl)-2,5-diphenyltetrazolium bromide, a yellow tetrazole), is reduced to purple formazan in living cells. A solubilization solution (usually either dimethyl sulfoxide, an acidified ethanol solution, or a solution of the detergent sodium dodecyl sulphate in diluted hydrochloric acid) is added to dissolve the insoluble purple formazan product into a coloured solution. The absorbance of this coloured solution can be quantified by measuring at a certain wavelength (usually between 500 and 600 nm) by a spectrophotometer. The absorption maximum is dependent on the solvent employed.
(§4) WST-1 (Roche Applied Sciences, Montreal) is a ready-to-use substrate which measures the metabolic activity of viable cells. The WST-1 assay is nonradioactive and can be performed entirely in a microplate. It is suitable for measuring cell proliferation, cell viability or cytotoxicity. The assay is based on the reduction of WST-1 by viable cells. The reaction produces a soluble formazan salt. The procedure involves: Culturing the cells in a 96-well microplate, then incubating them with WST-1 for approx. 0.5-4 h. During this incubation period, viable cells convert WST-1 to a water-soluble formazan dye. Quantitating the formazan dye in the microplate is done with an ELISA plate reader. The absorbance directly correlates with the cell number.

MiaPaCa-2 cells = experiment: Cell viability of MiaPaCa-2 pancreatic cancer cells in culture (MTT or WST-1, 72 hrs); type: cell-based, human; conditions: MiaPaCa-2; for Chemo-drug LD50: MTT, 72 hrs
PANC-1 cells = experiment: Cell viability of PANC-1 pancreatic cancer cells in culture (MTT or WST-1, 72 hrs); type: cell-based, human; conditions: PANC-1; for Chemo-drug LD50: MTT, 72 hrs
BxPC-3 cells = experiment: Cell viability of BxPC-3 pancreatic cancer cells in culture (MTT or WST-1, 72 hrs); type: cell-based, human; conditions: BxPC-3; for Chemo-drug LD50: MTT, 72 hrs
MDA MB-231 cells = experiment: Cell viability of MDA MB-231 breast cancer cells in culture (MTT or WST-1, 72 hrs); type: cell-based, human; conditions: MDA MB-231; for Chemo-drug LD50: WST-1, 72 hrs
Method: (§5) MDA MB-231cells (ATCC® Number: HTB-26™) are human mammary gland breast adenocarcinoma derived from metastatic pleural effusion with epithelial morphology. MCF-7 (ATCC® Number: HTB-22™) are human mammary gland breast adenocarcinoma derived from metastatic pleural effusion with epithelial morphology.
as §2, §3, §4

MCF-7 cells = experiment: Cell viability of MCF-7 breast cancer cells in culture (MTT or WST-1, 72 hrs); type: cell-based, human; conditions: MCF-7; for Chemo-drug LD50: WST-1, 72 hrs
Method: as §5, §2, §3, §4

Capan-1 cells = experiment: Cell viability of Capan-1 pancreatic metastatic cancer cells in culture (MTT or WST-1, 72 hrs); type: cell-based, human; conditions: Capan-1; for Chemo-drug LD50: WST-1, 72 hrs
Method: CAPAN-1 cells (ATCC® Number: HTB-79™) are human pancreatic cancer cell line with epithelial morphology expressing the 17 beta-estradiol (E2)-binding estrogen receptor and derived from metastatic liver with adenocarcinoma.
as §2, §3, §4

A 2780 cells = experiment: Cell viability of A 2780 ovarian cancer cells in culture (MTT or WST-1, 72 hrs); type: cell-based, human; conditions: A 2780; for Chemo-drug LD50: WST-1, 72 hrs
Method: as §1, §2, §3, §4

TLR4/MD2 = conditions: HEK293 cells stably transfected with TLR4/MD2; cited from earlier work
human Neu3 sialidase = target: T1, human Neu3 sialidase (Homo sapiens, UniProt Q9UQ49); conditions: in the micromolar range; cited from earlier work
T1 sequence (Q9UQ49 1-428): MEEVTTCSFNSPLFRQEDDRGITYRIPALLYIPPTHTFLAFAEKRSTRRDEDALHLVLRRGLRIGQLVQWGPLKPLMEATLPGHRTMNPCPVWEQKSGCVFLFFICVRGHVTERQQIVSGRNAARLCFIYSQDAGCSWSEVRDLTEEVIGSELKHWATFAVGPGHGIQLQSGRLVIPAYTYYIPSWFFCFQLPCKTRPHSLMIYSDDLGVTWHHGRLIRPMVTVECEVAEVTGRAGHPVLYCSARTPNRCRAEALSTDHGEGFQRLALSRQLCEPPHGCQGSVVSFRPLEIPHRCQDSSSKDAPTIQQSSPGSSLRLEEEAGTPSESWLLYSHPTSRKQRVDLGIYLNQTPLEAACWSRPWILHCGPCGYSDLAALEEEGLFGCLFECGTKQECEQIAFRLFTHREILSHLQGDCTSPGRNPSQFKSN

Neu3 sialidase = conditions: 2 mM; lysates from mature dendritic cells; cited from earlier work
Neu1 sialidase [2] = target: T2, Neu1 sialidase (Homo sapiens, UniProt Q99519); conditions: 2 mM; lysates from mature dendritic cells; cited from earlier work
T2 construct: using lysates from mature dendritic cells; host or cells: lysates from mature dendritic cells

Neu1 sialidase [3] = conditions: NGF treated live TrkA-expressing cells; cited from earlier work
[4] = target: T3, sialidase activity associated with TLR ligand treated live BMC-2 macrophage cells (Mus musculus, UniProt O35657); conditions: 1-2 mM, compared to LPS positive control; cited from earlier work
T3 construct: endogenous in cells; host or cells: BMC-2 macrophage cells

Neu1 sialidase [5] = target: T4, Neu1 sialidase (Mus musculus, UniProt O35657); experiment: LPS-induced Neu1 sialidase activity in live BMA macrophage cells (4-MUNANA); type: cell-based; parameters: endogenous in cells; host or cells: BMA macrophage cells
Method: TLR-expressing BMA macrophage cells were grown on 12 mm circular glass slides in culture media containing DMEM supplemented with 10% fetal calf serum. […] Fluorescent images were taken after 2-3 minutes using epi-fluorescent microscopy (Zeiss Imager M2, 40× objective).
This recently developed assay was used to detect sialidase activity on the surface of viable cells. […] The inhibitory potency of a series of amide-linked C9 modified DANA (2-deoxy-2,3-dehydro-D-N-acetylneuraminic add) analogues on lipopolysaccharide (LPS)-induced Neu1 sialidase activity was assessed in live BMA macrophage cells.

carboxylesterase = carboxylesterase (Homo sapiens, UniProt P23141); conditions: cited from earlier work
carboxylesterase, sequence (P23141 18-567): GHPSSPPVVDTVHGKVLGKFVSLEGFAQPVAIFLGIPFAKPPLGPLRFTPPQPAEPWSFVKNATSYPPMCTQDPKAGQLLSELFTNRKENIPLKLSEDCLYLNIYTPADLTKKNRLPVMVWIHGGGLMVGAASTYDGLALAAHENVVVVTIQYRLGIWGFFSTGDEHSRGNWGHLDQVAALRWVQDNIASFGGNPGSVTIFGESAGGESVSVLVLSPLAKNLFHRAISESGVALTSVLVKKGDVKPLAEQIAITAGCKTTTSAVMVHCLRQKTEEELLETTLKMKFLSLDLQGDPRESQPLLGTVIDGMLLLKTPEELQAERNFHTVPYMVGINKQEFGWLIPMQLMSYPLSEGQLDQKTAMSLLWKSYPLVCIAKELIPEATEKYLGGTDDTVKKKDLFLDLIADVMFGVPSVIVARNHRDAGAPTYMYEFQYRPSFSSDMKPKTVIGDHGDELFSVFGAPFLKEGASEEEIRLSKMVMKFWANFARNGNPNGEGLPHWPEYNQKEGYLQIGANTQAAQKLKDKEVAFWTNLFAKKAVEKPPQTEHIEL

Neu1 sialidase [6] = target: T4, Neu1 sialidase; conditions: live BMA macrophage cells; clopidogrel bisulfate 280 and 500 μM pre-treatment; LPS 5 μg/mL; oseltamivir phosphate 400 μM; cited from earlier work
[7] = chemo-drug alone, abraxane 0.5 mg/kg day 78, gemcitabine 30 mg/kg day […]
[8] = day 84, Gemcitabine 30 mg/kg alone
[9] = day 93, Gemcitabine 30 mg/kg alone
[10] = day 112, Gemcitabine 30 mg/kg alone
[11] = oseltamivir phosphate 2 mg/kg, alone day 90, with abraxane 0.5 day 78, with gemcitabine 30 day 110
[12] = oseltamivir phosphate 5 mg/kg, alone day 90, with abraxane 0.5 day 90, with gemcitabine 30 day 109
[13] = co-treatment oseltamivir phosphate 730 μM
[14] = co-treatment oseltamivir phosphate 1460 μM

Molecule: Nc1ccn([C@@H]2O[C@H](CO)[C@@H](O)C2(F)F)c(=O)n1 [gemcitabine, Gemcitabine]
- Liver metastases (ave number of nodules) [1, 7]: 12
- Metastases (size, mm) [1, 7]: 0.3-1.5 mm
- Tumour volume ([1]; day 79, chemotherapeutic alone (Abraxane 0.5 mg/kg or Gemcitabine 30 mg/kg i.p. once weekly)): 200 ± 47 (5) mm^3
- % Inhibition To untreated ([1]; day 79, chemotherapeutic alone (Abraxane 0.5 or Gemcitabine 30 mg/kg)): 86%
- % Inhibition To untreated ([1]; day 79, chemotherapeutic alone (Abraxane 0.5 or Gemcitabine 30 mg/kg), listed as Gemcitabine): 86% (p < 0.0001)
- % Inhibition To untreated [1, 8]: 89%
- Tumour volume [1, 8]: 159 ± 52 (5) mm^3
- % Inhibition To untreated ([1]; day 84, Gemcitabine 30 mg/kg alone, listed as Gemcitabine): 89% (p < 0.0001)
- % Inhibition To untreated [1, 9]: 69%
- Tumour volume [1, 9]: 437 ± 140 (3) mm^3
- % Inhibition To untreated ([1]; day 93, Gemcitabine 30 mg/kg alone, listed as Gemcitabine): 69% (p < 0.0001)
- % Inhibition To untreated [1, 10]: 63%
- Tumour volume [1, 10]: 507 ± 357(2) mm^3
- % Inhibition To untreated ([1]; day 112, Gemcitabine 30 mg/kg alone, listed as Gemcitabine): 63%
- Liver metastases (ave number of nodules) ([1]; oseltamivir phosphate 2 mg/kg, alone day 90, with abraxane 0.5 mg/kg day 78, with gemcitabine 30 mg/kg day 110): 10
- Metastases (size, mm) [1, 11]: 0.5-1.2 mm
- Liver metastases % Inhibition [1, 11]: 76%
- Liver metastases (ave number of nodules) ([1]; oseltamivir phosphate 5 mg/kg, alone day 90, with abraxane 0.5 mg/kg day 90, with gemcitabine 30 mg/kg day 109): 8
- Metastases (size, mm) [1, 12]: 0.2-1.5 mm
- Liver metastases % Inhibition [1, 12]: 81%
- Chemo-drug LD50 (A 2780cis cells; [13]): 40 µM
- Chemo-drug LD50 (A 2780cis cells; oseltamivir phosphate 0 μM): 60 µM
- Chemo-drug sensitivity with oseltamivir phosphate (fold increase) (A 2780cis cells; oseltamivir phosphate 730 μM): 1.5 fold increase
- Chemo-drug LD50 (MiaPaCa-2 cells; [13]): 0.78 µM
- Chemo-drug LD50 (MiaPaCa-2 cells; [14]): 0.078 µM
- Chemo-drug LD50 (MiaPaCa-2 cells; oseltamivir phosphate 0 μM): 0.78 µM
- Chemo-drug sensitivity with oseltamivir phosphate (fold increase) (MiaPaCa-2 cells; oseltamivir phosphate 730 μM): 1 fold increase
- Chemo-drug sensitivity with oseltamivir phosphate (fold increase) (MiaPaCa-2 cells; oseltamivir phosphate 1460 μM): 10 fold increase
- Chemo-drug LD50 (PANC-1 cells; [13]): 1.6 µM
- Chemo-drug LD50 (PANC-1 cells; [14]): 1.5 µM
- Chemo-drug LD50 (PANC-1 cells; oseltamivir phosphate 0 μM): >26 µM
- Chemo-drug sensitivity with oseltamivir phosphate (fold increase) (PANC-1 cells; oseltamivir phosphate 730 μM): 16 fold increase
- Chemo-drug sensitivity with oseltamivir phosphate (fold increase) (PANC-1 cells; oseltamivir phosphate 1460 μM): 17 fold increase
- Chemo-drug LD50 (BxPC-3 cells; [13]): 0.78 µM
- Chemo-drug LD50 (BxPC-3 cells; [14]): 1 µM
- Chemo-drug LD50 (BxPC-3 cells; oseltamivir phosphate 0 μM): 0.78 µM
- Chemo-drug sensitivity with oseltamivir phosphate (fold increase) (BxPC-3 cells; oseltamivir phosphate 730 μM): 1 fold increase
- Chemo-drug sensitivity with oseltamivir phosphate (fold increase) (BxPC-3 cells; oseltamivir phosphate 1460 μM): 0.78 fold increase
- Chemo-drug LD50 (MDA MB-231 cells; [13]): 40 µM
- Chemo-drug LD50 (MDA MB-231 cells; oseltamivir phosphate 0 μM): 70 µM
- Chemo-drug sensitivity with oseltamivir phosphate (fold increase) (MDA MB-231 cells; oseltamivir phosphate 730 μM): 2 fold increase
- Chemo-drug LD50 (MCF-7 cells; [13]): 40 µM
- Chemo-drug LD50 (MCF-7 cells; oseltamivir phosphate 0 μM): 40 µM
- Chemo-drug sensitivity with oseltamivir phosphate (fold increase) (MCF-7 cells; oseltamivir phosphate 730 μM): 1 fold increase
- Chemo-drug LD50 (Capan-1 cells; [13]): 30 µM
- Chemo-drug LD50 (Capan-1 cells; oseltamivir phosphate 0 μM): 60 µM
- Chemo-drug sensitivity with oseltamivir phosphate (fold increase) (Capan-1 cells; oseltamivir phosphate 730 μM): 2 fold increase
- Chemo-drug LD50 (A 2780 cells; [13]): 40 µM
- Chemo-drug LD50 (A 2780 cells; oseltamivir phosphate 0 μM): 60 µM
- Chemo-drug sensitivity with oseltamivir phosphate (fold increase) (A 2780 cells; oseltamivir phosphate 730 μM): 1.5 fold increase

Molecule: galectin-1: α-2,3-sialyl specific galectin-1
- Inhibition of TLR ligand-induced NFκB responses (in words) (TLR4/MD2): significantly inhibited

Molecule: CC(=O)N[C@H]1[C@H]([C@H](O)[C@H](O)CO)OC(C(=O)O)=C[C@@H]1N=C(N)N [zanamivir, 4-guanidino-Neu5Ac2en]
- Inhibition of human Neu3 sialidase (in words) (human Neu3 sialidase): significantly inhibited
- Inhibition of Neu3 sialidase activity (in words) (Neu3 sialidase): completely inhibited
- Inhibition of Neu1 sialidase activity (in words) (Neu1 sialidase [2]): completely inhibited
- Inhibition of Neu1 sialidase activity (in words) (Neu1 sialidase [3]): limited inhibitory effect
- Inhibition of LPS induced sialidase activity (in words) [4]: limited effect

Molecule: CCC(CC)[C@H](NC(C)=O)[C@@H]1C[C@@H](C(=O)O)C[C@H]1N=C(N)N [BCX-1827]
- Inhibition of LPS induced sialidase activity (in words) [4]: limited effect

Molecule: CC(=O)N[C@H]1[C@H]([C@H](O)[C@H](O)CO)OC(C(=O)O)=C[C@@H]1O [DANA, 2-deoxy-2,3-dehydro-N-acetylneuraminic acid]
- Inhibition of Neu1 sialidase (in words) (Neu1 sialidase [5]): moderate inhibitor of Neu1 sialidase
- Inhibition of LPS induced sialidase activity (in words) [4]: limited effect

Molecule: COC(=O)[C@H](c1ccccc1Cl)N1CCc2sccc2C1 [clopidogrel]
- Inhibition of hydrolysis of oseltamivir phosphate by carboxylesterase (carboxylesterase): ≤ 90%
- Effect on oseltamivir phosphate's capacity to inhibit LPS induced sialidase activity (Neu1 sialidase [6]): no effect
